# Test results taken from patent US20240327392A1, “HETEROCYCLOALKYL-SUBSTITUTED POLYHETEROAZOLE DERIVATIVES AS MEDICAMENTS FOR TREATING AND/OR PREVENTING RS VIRUS INFECTIONS” (ALBIUS SCIENCES ALPHA PRIVATE LIMITED, priority 2021, published 2024).
# Tested on: human RS virus A2 strain
# Test: In vitro test for anti-RS virus proliferation inhibitory activity (quantitative RT-PCR of RS virus RNA copy number in infected Vero cells)
# Assay type: cell-based
# Details: 72 h; Vero cells infected with human RS virus A2 strain, 3 days of incubation, RS virus N gene RNA copy number by quantitative RT-PCR; read-out: Anti-RS virus Activity
# Procedure, shortened: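 Vero cells infected with RSV A2 (1.7×10^4 TCID50/mL in inoculum mix) with compound in 10% FCS EMEM, 3 days at 37 °C, 5% CO2. Lysate viral N-gene RNA quantified by one-step SYBR qRT-PCR; copy number by comparative Ct relative to untreated infected cells.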
row,IC50 [µM],SMILES
1,10 to 50,"O=S(=O)(Cc1ccccc1)N1CCC[C@H]1c1nc(CCCc2ccccc2)no1 [Compound 1E, 3-(3-phenylpropyl)-5-[(2S)-1-benzylsulfonylpyrrolidin-2-yl]-1,2,4-oxadiazole]"
2,> 50,"CC(C)CS(=O)(=O)N1CCC[C@H]1c1nc(CCCc2ccccc2)no1 [Compound 1A, 3-(3-phenylpropyl)-5-[(2S)-1-isobutylsulfonylpyrrolidin-2-yl]-1,2,4-oxadiazole]"

# Same assay, conditions: 72 h; Vero cells infected with human RS virus A2 strain, 3 days of incubation, RS virus RNA copy number by quantitative RT-PCR; read-out: Anti-RS virus Activity
row,IC50 [µM],SMILES
1,< 10,"O=S(=O)(C1CCOCC1)N1C[C@H](c2ccccc2)C[C@H]1c1nc(CCCc2ccccc2)no1 [Compound 7AP, 5-((2S,4S)-4-phenyl1-((tetrahydro-2H-pyran-4-yl)sulfonyl)pyrrolidin-2-yl)-3-(3-phenylpropyl)-1,2,4-oxadiazole]"
2,> 50,"CS(=O)(=O)N1CC2(CC2)C[C@H]1c1nc(CCCc2ccccc2)no1 [Compound 5C, 3-(3-phenylpropyl)-5-{(6S)-5-methanesulfonyl-5-azaspiro[2.4]hept-6-yl}-1,2,4-oxadiazole]"
3,< 10,"CC(C)(C)OC(=O)N1CC(CS(=O)(=O)N2CC3(CC3)C[C@H]2c2nc(CCCc3ccccc3)no2)C1 [Compound 5AM, tert-buthyl (S)-3-(((6-(3-(3-phenylpropyl)-1,2,4-oxadiazole-5-yl)-5-azaspiro[2.4]heptan-5-yl)sulfonyl)methyl)azetidin-1-carboxylate]"
4,< 10,"CC(C)(C)OC(=O)N1CCCC[C@H]1c1nnc(CCCc2ccccc2)o1 [Compound 18-1, Tert-butyl (S)-2-(5-(3-phenylpropyl)-1,3,4-oxadiazol-2-yl) piperidine-1-carboxylate]"
5,< 10,"O=C(Cc1ccccc1)N1CCC[C@H]1c1nc(CCCc2ccccc2)no1 [Compound 1P, (S)-2-Phenyl-1-(2-(3-(3-phenylpropyl)-1,2,4-oxadiazol-5-yl)pyrrolidin-1-yl) ethan-1-one]"
6,< 10,"O=C(c1ccccc1)N1CCCC[C@H]1c1nc(CCCc2ccccc2)no1 [Compound 2S, (S)-Phenyl(2-(3-(3-phenylpropyl)-1,2,4-oxadiazol-5-yl)piperidin-1-yl)methanone]"
7,10 to 50,"CS(=O)(=O)N1C[C@H]2CC[C@]1(c1nc(CCc3ccccc3)no1)CC2 [Compound 15C, 5-((1s,4s)-2-(methylsulfonyl)-2-azabicyclo[2.2.2]octan-1-yl)-3-phenethyl-1,2,4-oxadiazole]"

# Continued, compound first:
row,SMILES,IC50 [µM]
1,O=C(NCc1cnc2ccccc2c1)N1[C@@H]2CC[C@@H](C2)[C@H]1c1nnc(Cc2c[nH]c3ccccc23)[nH]1 [Compound 24AH],10 to 50
2,"CS(=O)(=O)N1C[C@H](F)C[C@H]1c1nc(CCCc2ccccc2)no1 [Compound 8C, 3-(3-phenylpropyl)-5-[(2S,4R)-1-methanesulfonyl-4-fluoropyrrolidin-2-yl]-1,2,4-oxadiazole]",> 50
3,"CCOC(=O)C1CCN(S(=O)(=O)N2CC(CC3CCC3)CC2c2nc(CCCc3ccccc3)no2)CC1 (stereo not drawn) [Compound 6AC, ethyl 1-((4-(cyclobuthylmethyl)-2-(3-(3-phenylpropyl)-1,2,4-oxadiazole-5-yl)pyrrolidin-1-yl)sulfonyl)piperidin-4-carboxylate]",10 to 50
4,"[O-][S+](N1CCCC[C@H]1c1nc(CCCc2ccccc2)no1)C12CC3CC(CC(C3)C1)C2 (stereo partly drawn) [2AF′, 5-((2S)-1-((adamantan-1-yl)sulfinyl)piperidin-2-yl)-3-(3-phenylpropyl)-1,2,4-oxadiazole]",10 to 50
5,"O=C(Oc1ccccc1)N1CCC[C@H]1c1nc(CCCc2ccccc2)no1 [Compound 1M, Phenyl (S)-2-(3-(3-phenylpropyl)-1,2,4-oxadiazol-5-yl)pyrrolidine-1-carboxylate]",10 to 50
6,"CCOC(=O)C1CCN(S(=O)(=O)N2CC3(CC3)C[C@H]2c2nc(CCCc3ccccc3)no2)CC1 [Compound 5AC, ethyl (S)-1-((6-(3-(3-phenylpropyl)-1,2,4-oxadiazole-5-yl)-5-azaspiro[2.4]heptan-5-yl)sulfonyl)piperidin-4-carboxylate]",10 to 50
7,"CC(C)CS(=O)(=O)N1CC(CC2CCC2)CC1c1nc(CCCc2ccccc2)no1 (stereo not drawn) [Compound 6A, 3-(3-phenylpropyl)-5-(1-isobutylsulfonyl-4-cyclobutylmethylpyrrolidin-2-yl)-1,2,4-oxadiazole]",< 10
8,"CC(C)(C)OC(=O)N1C[C@H](c2ccccc2)C[C@H]1c1nc(CCCc2ccccc2)no1 [Compound 7-1, 3-(3-phenylpropyl)-5-[(2S,4S)-1-tert-butoxycarbonyl-4-phenylpyrrolidin-2-yl]-1,2,4-oxadiazole]",< 10
9,CC(=O)N1CCCC[C@H]1c1nc(CCCc2ccccc2)no1 [Compound 2R],10 to 50
10,"CC(C)(C)OC(=O)NCc1noc([C@@H]2C[C@@H](c3ccccc3)CN2S(=O)(=O)c2ccc(F)cc2)n1 [Compound 43AJ, Tert-butyl ((5-((2S,4S)-1-((4-fluorophenyl)sulfonyl)-4-phenylpyrrolidin-2-yl)-1,2,4-oxadiazol-3-yl)methyl) carbamate]",10 to 50
11,"CC(C)CC(=O)N1CCCC[C@H]1c1nc(CCCc2ccccc2)no1 [Compound 2Q, (S)-3-Methyl-1-(2-(3-(3-phenylpropyl)-1,2,4-oxadiazol-5-yl)piperidin-1-yl)butan-1-one]",< 10
12,O=S(=O)(c1ccc(F)cc1)N1C[C@H](c2ccccc2)C[C@H]1c1nc(CCCc2ccccc2)no1 [Compound 7AJ],< 10
13,"O=S(=O)(Cc1ccccc1)N1C[C@H](F)C[C@H]1c1nc(CCCc2ccccc2)no1 [Compound 8E, 3-(3-phenylpropyl)-5-[(2S,4R)-1-benzylsulfonyl-4-fluoropyrrolidin-2-yl]-1,2,4-oxadiazole]",< 10
14,"Cc1oc([C@@H]2CCCCN2S(=O)(=O)C2CCCCC2)nc1C(=O)NCc1ccccc1 [Compound 34B, (S)—N-Benzyl-2-(1-(cyclohexylsulfonyl)piperidin-2-yl)-5-methyloxazole-4-carboxamide]",10 to 50
15,"O=S(=O)(C1CCCCC1)N1[C@@H]2CC[C@@H](C2)[C@H]1c1nnc(CCc2ccncc2)[nH]1 [Compound 29B, (1R,3S,4S)-2-(cyclohexylsulfonyl)-3-(5-(2-(pyridin-4-yl)ethyl)-4H-1,2,4-triazol-3-yl)-2-azabicyclo[2.2.1]heptane]",10 to 50
